Assay results: US12509452B2, “Substituted-isoxazoline-containing aromatic compound, preparation method therefor, herbicidal composition and use thereof” (QINGDAO KINGAGROOT CHEMICAL COMPOUND CO., LTD., priority 2019, dated 2025)

Legend:
Assay in all cases: weeding effect in post-emergence stage
Assay type in all cases: in vivo
Details in all cases: dose 125 g a.i./ha
[1] = test system: Alopecurus japonicus
Text: (§1) The activity level criteria for plant damage (i.e., growth control rate) are as follows: • Level 5: growth control rate is above 85%; • Level 4: growth control rate is greater than or equal to 60% and less than 85%; • Level 3: growth control rate is greater than or equal to 40% and less than 60%; • Level 2: growth control rate is greater than or equal to 20% and less than 40%; • Level 1: growth control rate is greater than or equal to 5% and less than 20%; • Level 0: growth control rate is less than 5%.
(§2) The above growth control rates are fresh weight control rates.
(§3) Experiment on weeding effect in post-emergence stage:
(§4) Monocotyledonous and dicotyledonous weed seeds (Descurainia sophia, Capsella bursa-pastoris, Abutilon theophrasti, Galium aparine, Stellaria media, Lithospermum arvense, Rorippa indica, Alopecurus aequalis, Alopecurus japonicus, Beckmannia syzigachne, Sclerochloa dura, Conyza Canadensis, Phleum paniculatum, Veronica didyma Tenore, Bromus japonicus, Aegilops tauschii, Phalaris arundinacea, Amaranthus retroflexus, Chenopodium album, Commelina communis, Sonchus arvensis, Convolvulus arvensis, Cirsium setosum, Solanum nigrum, Acalypha australis, Digitaria sanguinalis, Echinochloa crusgalli, Setaria viridis, Setaria glauca, Leptochloa chinensis, Monochoria vaginalis, Sagittaria trifolia, Scirpus juncoides, Cyperus rotundus, Cyperus iria, Cyperus difformis, Fimbristylis, Portulaca oleracea, Xanthium sibiricum, Pharbitis nil, Conyza japonica, etc.) and major crop seeds (wheat, corn, rice, soybean, cotton, oilseed rape, millet, sorghum, potato, sesame, ricinus, etc.) were placed in plastic pots filled with soil, then covered with 0.5-2 cm of soil, allowed to grow in a good greenhouse environment. After 2 weeks of sowing, the test plants were treated in the 2-3 leaf stage. The tested compounds of the present invention were respectively dissolved in acetone, then added with Tween 80 and 1.5 liter/ha of emulsifiable concentrate of methyl oleate as synergist, diluted with a certain amount of water to obtain a solution with a certain concentration, and sprayed with a spray tower onto the plants. After the application, the plants were cultured for 3 weeks in the greenhouse, and then the experimental results of the weeding were counted. The doses of the used compounds were 500, 250, 125, 60, 15, 7.5 g a.i./ha, and the averages were obtained by repeating for three times.

[2] = test system: Rorippa indica
Text: as §1, §2, §3, §4

[3] = test system: Conyza japonica
Text: as §1, §2, §3, §4

[4] = test system: Beckmannia syzigachne
Text: as §1, §2, §3, §4

Row | Compound | weeding effect in post-emergence stage, Alopecurus japonicus (activity level) [1] | weeding effect in post-emergence stage, Rorippa indica (activity level) [2] | weeding effect in post-emergence stage, Conyza japonica (activity level) [3] | weeding effect in post-emergence stage, Beckmannia syzigachne (activity level) [4]
1 | COC(=O)C1(F)CC(c2cc(-n3c(=O)cc(C(F)(F)F)n(C)c3=O)c(F)cc2Cl)=NO1 (racemic) [Compound 129] | 5 (Level 5: growth control rate is above 85%) | 5 (Level 5: growth control rate is above 85%) | 5 (Level 5: growth control rate is above 85%) | 5 (Level 5: growth control rate is above 85%)
2 | CCOC(=O)C1(CF)CC(c2cc(-n3c(=O)cc(C(F)(F)F)n(C)c3=O)c(F)cc2Cl)=NO1 (racemic) [Compound 132] | 5 (Level 5: growth control rate is above 85%) | 5 (Level 5: growth control rate is above 85%) | 5 (Level 5: growth control rate is above 85%) | 5 (Level 5: growth control rate is above 85%)
3 | CCOC(=O)C1(C(F)F)CC(c2cc(-n3c(=O)cc(C(F)(F)F)n(C)c3=O)c(F)cc2Cl)=NO1 (racemic) [Compound 134] | 5 (Level 5: growth control rate is above 85%) | 5 (Level 5: growth control rate is above 85%) | 5 (Level 5: growth control rate is above 85%) | 5 (Level 5: growth control rate is above 85%)
4 | CCOC(=O)C1(C(F)(F)F)CC(c2cc(-n3c(=O)cc(C(F)(F)F)n(C)c3=O)c(F)cc2Cl)=NO1 (racemic) [Compound 135] | 5 (Level 5: growth control rate is above 85%) | 5 (Level 5: growth control rate is above 85%) | 5 (Level 5: growth control rate is above 85%) | 5 (Level 5: growth control rate is above 85%)
5 | CCOC(=O)C1(CCF)CC(c2cc(-n3c(=O)cc(C(F)(F)F)n(C)c3=O)c(F)cc2Cl)=NO1 (racemic) [Compound 136] | 5 (Level 5: growth control rate is above 85%) | 5 (Level 5: growth control rate is above 85%) | 5 (Level 5: growth control rate is above 85%) | 5 (Level 5: growth control rate is above 85%)
6 | CCOC(=O)C1(CO)CC(c2cc(-n3c(=O)cc(C(F)(F)F)n(C)c3=O)c(F)cc2Cl)=NO1 (racemic) [Compound 142] | 5 (Level 5: growth control rate is above 85%) | 5 (Level 5: growth control rate is above 85%) | 5 (Level 5: growth control rate is above 85%) | 5 (Level 5: growth control rate is above 85%)
7 | CCOC(=O)C1(C=O)CC(c2cc(-n3c(=O)cc(C(F)(F)F)n(C)c3=O)c(F)cc2Cl)=NO1 (racemic) [Compound 152] | 5 (Level 5: growth control rate is above 85%) | 5 (Level 5: growth control rate is above 85%) | 5 (Level 5: growth control rate is above 85%) | 5 (Level 5: growth control rate is above 85%)
8 | CCOC(=O)C1(COC=O)CC(c2cc(-n3c(=O)cc(C(F)(F)F)n(C)c3=O)c(F)cc2Cl)=NO1 (racemic) [Compound 218] | 5 (Level 5: growth control rate is above 85%) | 5 (Level 5: growth control rate is above 85%) | 5 (Level 5: growth control rate is above 85%) | 5 (Level 5: growth control rate is above 85%)
